Here are results for 16 compounds from PMC6522510 (Nature Communications, 2019).

Where two headings read alike, the source gives them in different places.

Test systems include ML-2; CHRF288-11; M07e; CMS; MV4-11; CMK; U937; MOLM-13.
What all share (design): species or system AML cell lines (8); Primary HTS, single concentration about 10 uM, Cell Titer Glo viability; log10 luminescence, per cent inhibition relative to cycloheximide control
Common to all, as to details: 72 h, relative to cycloheximide control, log10 luminescence, inhibitor

In the case of `CN[C@H](C#Cc1c(F)ccc2c1/C(=C/c1[nH]ccc1OC)C(=O)N2)CO` [SJ000581143-1], the ML-2 %inh in the assay with ML-2 was 61.18%. For the same compound, the CHRF288-11 %inh in the assay on CHRF288-11 was determined as 59.49%. In the assay with M07e, the M07e %inh was 77.31%. Moreover, the CMS %inh in the assay on CMS turned out to be 103.6%. For the same compound, in the assay with MV4-11, the MV4-11 %inh turned out to be 81.33%. Further, the CMK %inh with CMK is on record as 110.7%. Moreover, the U937 %inh in the assay on U937 is given as 84.86%. The MOLM-13 %inh in the assay on MOLM-13 is given as 108.7%.
For `COC(=O)c1cncc(/C=C/c2c(C)cc(O)cc2C)c1` [SJ000573206-1, U12614/140/1], the ML-2 %inh with ML-2 is reported as 4.986%. Besides, the CHRF288-11 %inh in the assay with CHRF288-11 turned out to be 31.61%. The M07e %inh in the assay on M07e amounted to 18.22%. Moreover, the CMS %inh with CMS came out at 1.868%. Moreover, in the assay with MV4-11, the MV4-11 %inh is 6.215%. Besides, the CMK %inh in the assay with CMK was determined as 80.78%. Further, in the assay on U937, the U937 %inh is on record as 23.01%. The MOLM-13 %inh in the assay with MOLM-13 worked out at 1.326%.
With `CC(=O)N[C@@H](Cc1ccc(OP(=O)(O)O)cc1)C(=O)N[C@H]1CCC(=O)N2CCC[C@@H](C(=O)NCc3ccccc3)N2C1=O` [SJ000581025-1], the ML-2 %inh in the assay on ML-2 was 0.2617%. The CHRF288-11 %inh in the assay on CHRF288-11 was 3.231%. Besides, the M07e %inh with M07e is on record as -1.273%. For the same compound, the CMS %inh with CMS stood at 0.9205%. The MV4-11 %inh in the assay with MV4-11 is recorded as -4.371%. Besides, in the assay with CMK, the CMK %inh was -3.468%. Moreover, in the assay with U937, the U937 %inh is 0.2421%. In addition, the MOLM-13 %inh with MOLM-13 is on record as 0.5747%.
Take `Nc1c(C(=O)c2cccc(CCCN3CCOCC3)c2)cnn1-c1ccc(F)cc1` [SJ000581033-1]: the ML-2 %inh with ML-2 came out at 2.815%. Further, the CHRF288-11 %inh in the assay on CHRF288-11 stood at 0.5002%. In the assay on M07e, the M07e %inh is recorded as 1.168%. Moreover, the CMS %inh in the assay with CMS is on record as -0.1935%. In the assay on MV4-11, the MV4-11 %inh was -0.6007%. In addition, the CMK %inh with CMK was -2.511%. Further, in the assay on U937, the U937 %inh was determined as 0.5296%. In the assay on MOLM-13, the MOLM-13 %inh is -0.1425%.
For the compound `NCCCC[C@H](N[C@@H](CCc1ccccc1)C(=O)O)C(=O)N1CCC[C@H]1C(=O)O` [SJ000285890-4, LISINOPRIL], the ML-2 %inh with ML-2 (ML-2 %inh, 10 µM) is recorded as -0.08728%. Further, the CHRF288-11 %inh in the assay on CHRF288-11 (CHRF288-11 %inh, 10 µM) was -6.515%. Also, the M07e %inh with M07e (M07e %inh, 10 µM) is given as -2.951%. Also, the CMS %inh with CMS (CMS %inh, 10 µM) is -0.4714%. In addition, the MV4-11 %inh in the assay on MV4-11 (MV4-11 %inh, 10 µM) was found to be 2.293%. Moreover, the CMK %inh in the assay with CMK (CMK %inh, 10 µM) is reported as 2.277%. For the same compound, the U937 %inh in the assay on U937 (U937 %inh, 10 µM) was determined as 5.753%. In the assay with MOLM-13 (MOLM-13 %inh, 10 µM), the MOLM-13 %inh is -2.286%.
Take `CO[C@H]1/C=C/O[C@@]2(C)Oc3c(C)c(O)c4c(O)c(c(/C=N/N5CCN(C)CC5)c(O)c4c3C2=O)NC(=O)/C(C)=C\C=C\[C@H](C)[C@H](O)[C@@H](C)[C@@H](O)[C@@H](C)[C@H](OC(C)=O)[C@@H]1C` [SJ000000850-6, RIFAMPIN | RIFAMPICIN]: the ML-2 %inh with ML-2 (ML-2 %inh, 10 µM) is 3.762%. Further, the CHRF288-11 %inh with CHRF288-11 (CHRF288-11 %inh, 10 µM) is on record as 0.456%. The M07e %inh in the assay with M07e (M07e %inh, 10 µM) was found to be 0.5367%. In addition, in the assay on CMS (CMS %inh, 10 µM), the CMS %inh is listed as 11.96%. The MV4-11 %inh with MV4-11 (MV4-11 %inh, 10 µM) is listed as 5.189%. Further, the CMK %inh in the assay on CMK (CMK %inh, 10 µM) is recorded as -0.3986%. Further, the U937 %inh in the assay on U937 (U937 %inh, 10 µM) is given as 3.577%. Also, the MOLM-13 %inh in the assay with MOLM-13 (MOLM-13 %inh, 10 µM) was 5.052%.
On to `NS(=O)(=O)c1ccc(-c2cc3ccncc3cc2OCc2ccccc2)cc1` [SJ000573084-1, R12606/136/38], for which the ML-2 %inh in the assay with ML-2 is on record as 1.187%. Also, in the assay on CHRF288-11, the CHRF288-11 %inh is on record as 3.946%. In the assay on M07e, the M07e %inh stood at 5.451%. The CMS %inh in the assay with CMS is listed as 4.611%. The MV4-11 %inh in the assay with MV4-11 is given as -2.181%. The CMK %inh in the assay with CMK is -0.9682%. Besides, the U937 %inh in the assay on U937 was found to be 0.3678%. For the same compound, the MOLM-13 %inh with MOLM-13 came to 2.161%.
For the compound `COc1cc(F)c(F)cc1C(=O)c1cnc(NC2CCN(S(C)(=O)=O)CC2)nc1N` [SJ000581030-1], the ML-2 %inh in the assay on ML-2 amounted to 12.87%. Besides, the CHRF288-11 %inh in the assay on CHRF288-11 is reported as 9.313%. Further, the M07e %inh in the assay on M07e was found to be 10.16%. The CMS %inh in the assay with CMS is given as 6.337%. In addition, the MV4-11 %inh in the assay on MV4-11 is 13.02%. The CMK %inh in the assay on CMK worked out at 33.04%. For the same compound, in the assay on U937, the U937 %inh amounted to 15.86%. Further, the MOLM-13 %inh with MOLM-13 stood at 17.32%.
Regarding `Cc1ccc(NC(=O)c2ccnc(N3CCCC3)c2)cc1-c1ccc(C(=O)NCC2CC2)cc1` [SJ000573336-1, U23923/65/8], the ML-2 %inh in the assay with ML-2 is listed as -2.392%. The CHRF288-11 %inh in the assay with CHRF288-11 is -0.1983%. For the same compound, the M07e %inh in the assay on M07e was -0.5333%. In the assay with CMS, the CMS %inh is -0.7437%. Moreover, the MV4-11 %inh with MV4-11 stood at 1.019%. In addition, the CMK %inh with CMK is 0.1294%. Further, in the assay on U937, the U937 %inh stood at 0.7829%. In addition, the MOLM-13 %inh in the assay with MOLM-13 amounted to 2.702%.
For the compound `COc1cc2c(cc1Nc1nc(Nc3ccsc3C(N)=O)c3cc[nH]c3n1)N(C(=O)CN(C)C)CCC2` [SJ000573044-1, N3343-60-3], the ML-2 %inh in the assay on ML-2 was determined as 41.91%. Besides, in the assay with CHRF288-11, the CHRF288-11 %inh was 98.1%. Also, the M07e %inh with M07e turned out to be 106%. Further, the CMS %inh with CMS is reported as 65.93%. Also, the MV4-11 %inh in the assay with MV4-11 worked out at 66.76%. Further, the CMK %inh in the assay on CMK amounted to 100.5%. Further, the U937 %inh in the assay with U937 was 74.84%. The MOLM-13 %inh with MOLM-13 was determined as 89.42%.
Take `CNC(=O)Oc1cc(C)c(/C=C/c2cncc(C(=O)NC)c2)c(C)c1` [SJ000573141-1, U11962/26/1]: the ML-2 %inh in the assay on ML-2 came out at 1.2%. The CHRF288-11 %inh in the assay with CHRF288-11 is 7.117%. In addition, in the assay with M07e, the M07e %inh worked out at 6.045%. In addition, the CMS %inh in the assay with CMS was -0.3622%. For the same compound, the MV4-11 %inh in the assay with MV4-11 is 1.51%. Besides, the CMK %inh in the assay with CMK was determined as 8.893%. Further, the U937 %inh in the assay on U937 is reported as 0.6726%. Further, in the assay with MOLM-13, the MOLM-13 %inh was 3.548%.
As to `Nc1c(C(=O)c2cccc(-c3cccnc3)c2)cnn1-c1ccc(F)cc1F` [SJ000581002-1], the ML-2 %inh with ML-2 is 15.07%. Moreover, in the assay on CHRF288-11, the CHRF288-11 %inh is given as 23.74%. For the same compound, the M07e %inh in the assay with M07e is 15.2%. For the same compound, in the assay with CMS, the CMS %inh was determined as 5.431%. In addition, in the assay on MV4-11, the MV4-11 %inh worked out at 0.1873%. The CMK %inh in the assay with CMK was 96.76%. Moreover, the U937 %inh in the assay on U937 came out at 25.61%. Also, the MOLM-13 %inh with MOLM-13 is reported as 19.66%.
As for `CS(=O)(=O)N1CCC(Nc2ncc(C(=O)c3c(F)cccc3F)c(N)n2)CC1` [SJ000581114-1], the ML-2 %inh with ML-2 is recorded as 1.661%. Also, the CHRF288-11 %inh in the assay on CHRF288-11 amounted to 0.1318%. Besides, the M07e %inh in the assay with M07e was 7.028%. In the assay with CMS, the CMS %inh came out at 2.662%. The MV4-11 %inh with MV4-11 came out at 0.7328%. Moreover, the CMK %inh in the assay with CMK is 18.19%. In addition, in the assay with U937, the U937 %inh was 3.392%. Moreover, the MOLM-13 %inh in the assay on MOLM-13 is recorded as 68.54%.
For the compound `CC(=O)N[C@@H](Cc1ccc(OP(=O)(O)O)cc1)C(=O)N[C@H]1CCC(=O)N2CCC[C@@H](C(=O)NCc3ccc(Cl)cc3)N2C1=O` [SJ000581056-1], in the assay with ML-2, the ML-2 %inh is -0.961%. For the same compound, the CHRF288-11 %inh in the assay on CHRF288-11 turned out to be 0.8967%. For the same compound, the M07e %inh in the assay on M07e was -0.4557%. The CMS %inh in the assay on CMS is reported as 0.4986%. In addition, the MV4-11 %inh in the assay on MV4-11 is on record as -2.949%. Also, the CMK %inh in the assay with CMK is on record as -8.834%. The U937 %inh in the assay with U937 is -1.499%. In the assay with MOLM-13, the MOLM-13 %inh is listed as -1.276%.
Regarding `COc1ccc2cc(-c3c(-c4ccncc4)nc(-c4ccc([S+](C)[O-])cc4C)n3C)ccc2c1` (centres unmarked) [SJ000573248-1, NJ44157-082A1], the ML-2 %inh with ML-2 is listed as 0.217%. Also, the CHRF288-11 %inh in the assay with CHRF288-11 amounted to 5.983%. Moreover, in the assay on M07e, the M07e %inh worked out at 7.477%. Moreover, the CMS %inh in the assay on CMS was found to be 2.672%. Also, the MV4-11 %inh in the assay on MV4-11 was 7.703%. Further, the CMK %inh with CMK stood at 1.35%. Also, the U937 %inh in the assay on U937 was 1.089%. In the assay with MOLM-13, the MOLM-13 %inh is 2.934%.
`COc1cccc(/C=N/Nc2ncnc3c2cnn3-c2cccc(OC)c2)c1` [SJ000573114-1, U19125/70/2]: the ML-2 %inh with ML-2 was -2.362%. For the same compound, in the assay on CHRF288-11, the CHRF288-11 %inh is given as -4.16%. In addition, the M07e %inh in the assay with M07e is recorded as -0.7733%. In the assay with CMS, the CMS %inh is listed as 0.5792%. Further, in the assay with MV4-11, the MV4-11 %inh is -0.9072%. Also, the CMK %inh with CMK turned out to be 1.014%. Also, the U937 %inh with U937 is listed as -1.619%. Moreover, the MOLM-13 %inh in the assay on MOLM-13 was 0.5296%.
